This assay concerns Plasmodium berghei. The assay can be described thus: Luciferase/luciferin-expressing antifolate-resistant parasites were used to infect a culture of HepG2 cells that were pre-incubated with compounds. Infected hepatocytes emit light due to the luciferase reaction. Assay results are presented as the percent inhibition of light emission compared to control. […]. It counts as functional. Particulars: sporozoite; for IC90: read-out: LUCIFERASE INFECTION ASSAY - IC90.

The mark [1] stands for this setting: read-out: LUCIFERASE INFECTION ASSAY - IC50.

Take `CCCOc1ccc(C(=O)CCC(=O)NNC(=O)c2ccncc2)cc1`: the 90% effect concentration (IC90) (as a rule, the concentration at which the effect reaches the 90% level) was 5.4 µM. Also, the IC50 (commonly the concentration that gives 50% inhibition) (HEPG2TOX_HILL_SLOPE 2.12, HEPG2TOX_R_SQUARED 0.868, PBLUC_HILL_SLOPE 86, PBLUC_R_SQUARED 0.219, read-out: LUCIFERASE INFECTION ASSAY - IC50) is 5.26 µM.
For `N#C/C(=C\c1cc(Cl)cc(Cl)c1O)c1ccc([N+](=O)[O-])cc1`, the IC90 is 6.14 µM. Besides, the IC50 (PBLUC_HILL_SLOPE 3.19, PBLUC_R_SQUARED 0.599, read-out: LUCIFERASE INFECTION ASSAY - IC50) turned out to be 3.08 µM.
Take `COc1ccccc1-c1cc2c(Nc3ccc(OC(F)(F)F)cc3)nccc2n1C`: the IC90 is 8.42 µM. The IC50 (FFLUC_HILL_SLOPE 12.5, FFLUC_R_SQUARED 0.343, HEPG2TOX_HILL_SLOPE 2.16, HEPG2TOX_R_SQUARED 0.708, PBLUC_HILL_SLOPE 2.92, PBLUC_R_SQUARED 0.46, read-out: LUCIFERASE INFECTION ASSAY - IC50) amounted to 3.97 µM.
Regarding `Cc1c(C)c(C)c2[nH]c(S)nc2c1C`, the IC90 was greater than 16 µM. Also, the IC50 (HEPG2TOX_HILL_SLOPE 6.45, HEPG2TOX_R_SQUARED 0.505, PBLUC_HILL_SLOPE 19.5, PBLUC_R_SQUARED 0.258, read-out: LUCIFERASE INFECTION ASSAY - IC50) is 15.4 µM.
`O=C(NCc1sccc1Cl)Nc1cccc(Cl)c1`: the IC90 was greater than 11 µM. For the same compound, for the setting “PBLUC_HILL_SLOPE 5.24, PBLUC_R_SQUARED 0.165, read-out: LUCIFERASE INFECTION ASSAY - IC50”, the IC50 was 7.24 µM.
Turning to `OC(c1ccc(Cl)c(F)c1)c1nc(-c2cccc(C(F)(F)F)c2)c[nH]1` (stereo not drawn), the IC90 was greater than 8.9 µM. Besides, the IC50 (FFLUC_HILL_SLOPE 12.1, FFLUC_R_SQUARED 0.0756, read-out: LUCIFERASE INFECTION ASSAY - IC50) is greater than 8.9 µM.
For the compound `Cc1ccccc1-c1cn2c(-c3ccc4c(c3)OCO4)cnc2cn1`, the IC90 was determined as 0.821 µM. Moreover, for the setting “HEPG2TOX_HILL_SLOPE 0.84, HEPG2TOX_R_SQUARED 0.902, PBLUC_HILL_SLOPE 1.93, PBLUC_R_SQUARED 0.734, read-out: LUCIFERASE INFECTION ASSAY - IC50”, the IC50 was found to be 0.263 µM.
Take `Cc1cc(Cl)c(C)c(S(=O)(=O)N(C)C(C)c2ccc(S(N)(=O)=O)cc2)c1Cl` (stereo not drawn): the IC90 is greater than 10 µM. Besides, the IC50 (HEPG2TOX_HILL_SLOPE 3.91, HEPG2TOX_R_SQUARED 0.817, PBLUC_HILL_SLOPE 1.91, PBLUC_R_SQUARED 0.506, read-out: LUCIFERASE INFECTION ASSAY - IC50) came out at 6.84 µM.
As for `Clc1ccc2c(c1)-c1nc(-c3ccncc3)ncc1CS2`, the IC90 is 5.94 µM. For the same compound, the IC50 (HEPG2TOX_HILL_SLOPE 2.28, HEPG2TOX_R_SQUARED 0.969, PBLUC_HILL_SLOPE 3.97, PBLUC_R_SQUARED 0.207, read-out: LUCIFERASE INFECTION ASSAY - IC50) amounted to 3.41 µM.
`CN(C)CCNc1ccnc2c(-c3ccccc3F)cnn12`: the IC90 is 1.46 µM. In addition, the IC50 (FFLUC_HILL_SLOPE 9.41, FFLUC_R_SQUARED 0.56, PBLUC_HILL_SLOPE 1.12, PBLUC_R_SQUARED 0.894, read-out: LUCIFERASE INFECTION ASSAY - IC50) was 0.204 µM.
As for `O=C(Nn1cn[nH]c1=S)c1ccc2ccccc2n1`, the IC90 was greater than 10 µM. Also, the IC50 (HEPG2TOX_HILL_SLOPE 3, HEPG2TOX_R_SQUARED 0.551, PBLUC_HILL_SLOPE 3.2, PBLUC_R_SQUARED 0.429, read-out: LUCIFERASE INFECTION ASSAY - IC50) came to 5.8 µM.
In the case of `CC(C)NC(=O)c1c(NC(=O)c2cc(F)cc(F)c2)nc2ccccn12`, the IC90 was 1.12 µM. For the same compound, for the setting “FFLUC_HILL_SLOPE 17.9, FFLUC_R_SQUARED 0.386, HEPG2TOX_HILL_SLOPE 1.01, HEPG2TOX_R_SQUARED 0.782, PBLUC_HILL_SLOPE 15.7, PBLUC_R_SQUARED 0.648, read-out: LUCIFERASE INFECTION ASSAY - IC50”, the IC50 worked out at 0.969 µM.
For `CSc1sc(NC(=O)Nc2ccc(Cl)cc2)cc1S(=O)(=O)C(C)C`, the IC90 is greater than 8.15 µM. Where the note is “PBLUC_HILL_SLOPE 7.91, PBLUC_R_SQUARED 0.357, read-out: LUCIFERASE INFECTION ASSAY - IC50”, the IC50 is 6.79 µM.
Consider `CNc1nc2cnc(Nc3ccccc3)cc2n1Cc1ccco1`, for which the IC90 is greater than 10 µM. Besides, the half-maximal inhibitory concentration (IC50) (HEPG2TOX_HILL_SLOPE 3.53, HEPG2TOX_R_SQUARED 0.949, PBLUC_HILL_SLOPE 2.74, PBLUC_R_SQUARED 0.404, read-out: LUCIFERASE INFECTION ASSAY - IC50) came out at 4.93 µM.
For the compound `C/C(=N\NC(=N)N)c1ccc(C2CCCCC2)cc1`, the IC90 was greater than 10 µM. Further, the IC50 (HEPG2TOX_HILL_SLOPE 4.72, HEPG2TOX_R_SQUARED 0.94, read-out: LUCIFERASE INFECTION ASSAY - IC50) is greater than 10 µM.
Take `CCn1nc(C(=O)OCC(=O)Nc2cc(S(=O)(=O)N3CCCCC3)ccc2Cl)c2ccccc2c1=O`: the IC90 was greater than 10 µM. Under setting [1], the IC50 was greater than 10 µM.
As for `CC(C)CCn1c(Sc2ccc3nnnn3n2)nc2scc(-c3cccs3)c2c1=O`, the IC90 was greater than 10 µM. The IC50 under setting [1] was greater than 10 µM.
`CCOC(=O)/C=C1\SCC(=O)N1CCOC(=O)c1ccccc1`: the IC90 was greater than 10 µM. Also, the IC50 under setting [1] is greater than 10 µM.
Consider `Cc1cc(-n2c(C)cc(/C=C3\S/C(=N\C4CCCC4)NC3=O)c2C)no1`, for which the IC90 is greater than 10 µM. Further, the IC50 (PBLUC_HILL_SLOPE 2.3, PBLUC_R_SQUARED 0.376, read-out: LUCIFERASE INFECTION ASSAY - IC50) is 5.21 µM.
`CC1(C)CC(=O)C=C(SCC(=O)Nc2cccc(C(F)(F)F)c2)S1`: the IC90 was greater than 8.79 µM. Moreover, the IC50 under setting [1] is greater than 8.79 µM.
Turning to `COc1ccc(NC2=NC(=O)/C(=C/c3cc(C)n(-c4cccc(Cl)c4Cl)c3C)S2)cc1`, the IC90 came out at 0.771 µM. The IC50 (PBLUC_HILL_SLOPE 2.19, 1.56, PBLUC_R_SQUARED 0.711, 0.979, read-out: LUCIFERASE INFECTION ASSAY - IC50) was found to be 0.238 µM.
With `Cc1ccc(Cn2cc(/C=C/C(=O)Nc3ccn(C)n3)c(-c3ccccc3)n2)cc1`, the IC90 is 5.35 µM. Besides, the IC50 (PBLUC_HILL_SLOPE 23.0, 1.63, PBLUC_R_SQUARED 0.221, 0.716, read-out: LUCIFERASE INFECTION ASSAY - IC50) turned out to be 5.32 µM.
For the compound `COc1ccc2c(C)cc3nnc(SCC(=O)NCC45CC6CC(CC(C6)C4)C5)n3c2c1`, the IC90 is greater than 10 µM. For the same compound, for the setting “HEPG2TOX_HILL_SLOPE 7.95, HEPG2TOX_R_SQUARED 0.512, PBLUC_HILL_SLOPE 13.7, PBLUC_R_SQUARED 0.353, read-out: LUCIFERASE INFECTION ASSAY - IC50”, the IC50 came out at 8.94 µM.
With `Cc1sc2nc(-c3cccnc3)nc(N3CCOCC3)c2c1-c1ccccc1`, the IC90 was determined as 9.9 µM. Further, under “FFLUC_HILL_SLOPE 7.85, FFLUC_R_SQUARED 0.0779, PBLUC_HILL_SLOPE 15.6, PBLUC_R_SQUARED 0.278, read-out: LUCIFERASE INFECTION ASSAY - IC50”, the IC50 was 8.61 µM.
`CC(C)(C)c1ccc(-c2nnc(SCc3ccccc3Cl)n2-c2cccc(C(F)(F)F)c2)cc1`: the concentration for an effect of 90% (IC90) is greater than 6.57 µM. Moreover, where the note is “PBLUC_HILL_SLOPE 55, PBLUC_R_SQUARED 0.768, read-out: LUCIFERASE INFECTION ASSAY - IC50”, the IC50 came to 6.56 µM.
Turning to `Clc1cccc(CNc2ncnc3sccc23)c1`, the IC90 came out at 9.83 µM. For the same compound, for the setting “HEPG2TOX_HILL_SLOPE 2.22, HEPG2TOX_R_SQUARED 0.937, PBLUC_HILL_SLOPE 2.28, PBLUC_R_SQUARED 0.461, read-out: LUCIFERASE INFECTION ASSAY - IC50”, the IC50 came out at 3.76 µM.
Regarding `CCCCn1nc(C(=O)Nc2cc(S(=O)(=O)N(CC)CC)ccc2N2CCOCC2)c2ccccc2c1=O`, the IC90 is greater than 10 µM. In addition, the IC50 under setting [1] was greater than 10 µM.
For the compound `COc1ccc(-c2ccc3ncc(-c4ccoc4)n3n2)cc1OC`, the IC90 was greater than 10 µM. Besides, under “PBLUC_HILL_SLOPE 16.2, PBLUC_R_SQUARED 0.0483, read-out: LUCIFERASE INFECTION ASSAY - IC50”, the IC50 is greater than 10 µM.
As to `C=C(C)C(=O)Oc1cccc(Oc2c(F)c(F)c(-c3c(F)c(F)c(Oc4cccc(OC(=O)C(=C)C)c4)c(F)c3F)c(F)c2F)c1`, the IC90 was greater than 10 µM. The IC50 (FFLUC_HILL_SLOPE 16.5, FFLUC_R_SQUARED 0.83, read-out: LUCIFERASE INFECTION ASSAY - IC50) is greater than 10 µM.
As to `C=CCN(C(=O)CCc1ccc(S(=O)(=O)N2CCCCCC2)cc1)c1nc2c(s1)CCCC2`, the IC90 was greater than 10 µM. Also, the IC50 (HEPG2TOX_HILL_SLOPE 1.95, HEPG2TOX_R_SQUARED 0.844, PBLUC_HILL_SLOPE 2.62, PBLUC_R_SQUARED 0.304, read-out: LUCIFERASE INFECTION ASSAY - IC50) amounted to 8.2 µM.
In the case of `COc1cc(C(=O)NNC(=O)c2ccc(Br)cc2)ccc1OCc1c(C)noc1C`, the IC90 stood at 7.1 µM. The IC50 (HEPG2TOX_HILL_SLOPE 1.09, HEPG2TOX_R_SQUARED 0.959, PBLUC_HILL_SLOPE 2.18, PBLUC_R_SQUARED 0.498, read-out: LUCIFERASE INFECTION ASSAY - IC50) amounted to 2.59 µM.
`CNc1snc(C)c1C(=O)OCc1cc(Cl)ccc1OC`: the IC90 is 4.16 µM. For the setting “FFLUC_HILL_SLOPE 8.97, FFLUC_R_SQUARED 0.0554, PBLUC_HILL_SLOPE 11, PBLUC_R_SQUARED 0.441, read-out: LUCIFERASE INFECTION ASSAY - IC50”, the IC50 was found to be 3.41 µM.
For the compound `Cc1cc(Br)ccc1NC(=O)CNC(=O)CCC(=O)N1CCC(c2ccccc2)=N1`, the IC90 is greater than 10 µM. Besides, under setting [1], the IC50 was greater than 10 µM.
Turning to `COc1ccc(-n2c(C)cc(/C=C(\C#N)C(=O)NCc3nnc4ccccn34)c2C)cc1`, the IC90 came out at 9.17 µM. Further, under “PBLUC_HILL_SLOPE 14.5, PBLUC_R_SQUARED 0.61, read-out: LUCIFERASE INFECTION ASSAY - IC50”, the IC50 was 7.88 µM.

(Values after ChEMBL document CHEMBL4483862, “Open-source discovery of chemical leads for next-generation chemoprotective antimalarials” (2018).)
